Series [1] in a line: Cytotoxicity against human Hep2 cells assessed as reduction in cell viability after 3 days by MTT assay. The series is classed as cell-based. As to conditions: HEp-2 cells; call rule not given here.
Series [2] in a line: Cytotoxicity against human RD cells assessed as reduction in cell viability after 3 days by MTT assay. The series is classed as cell-based. (Tetrazolium assays rely on reduction of a dye to a coloured formazan, in cell work by metabolically active cells.)
In another series the test system is Enterovirus A71. Kind of series: Antiviral activity against EV71 Xiangyang-Hubei-09 infected in human RD cells assessed as inhibition of virus-induced cytopathic effect by MTT dye based assay. The series is classed as functional, organism-based. As to conditions: rd. In general terms: Protection from cytopathic effect is a common read-out in antiviral testing.

Another series relates to Coxsackievirus B3. Kind of series: Antiviral activity against Coxsackievirus B3 (strain Nancy) infected in human HEP2 cells assessed as inhibition of virus-induced cytopathic effect by MTT dye based assay. The series is classed as functional, organism-based.

In brackets after ≈: the same amount, converted by molar mass.

Experimental findings from ChEMBL document CHEMBL4130414, “Asymmetric synthesis of novel triazole derivatives and their in vitro antiviral activity and mechanism of action” (Eur J Med Chem, 2017) are described below.

As usually defined, the CC50 is the concentration giving 50% cytotoxicity. For the molecule `Cc1ccc([C@@H](CCn2cncn2)Cc2ccccc2)cc1`, the CC50 at 72 h in series [1] came out at 83.3 µg/mL (≈ 286 µM); in series [2], 109 µg/mL (≈ 373 µM).

For `CC[C@@H](CCn1cncn1)c1ccc(F)cc1`, the CC50 at 72 h in series [1] was 90.3 µg/mL (≈ 387 µM); in series [2] it was 91.6 µg/mL (≈ 393 µM). In addition, the EC50 result in the series on Enterovirus A71 and in the series on Coxsackievirus B3 was “Not Active” each time.

Take `CCCC[C@H](CCn1cncn1)c1ccc(C)cc1`: the figures for the CC50 at 72 h in series [1] and in series [2] were 23.7 µg/mL (≈ 92.1 µM) and 26.5 µg/mL (≈ 103 µM), respectively.

Regarding `CCC[C@H](CCn1cncn1)c1ccc(OC)cc1`, the CC50 at 72 h in series [1] was 59.6 µg/mL (≈ 230 µM); in series [2], 59.3 µg/mL (≈ 229 µM).

For `CCCC[C@H](CCn1cncn1)c1ccc(Cl)cc1Cl`, the CC50 at 72 h came out at 13.4 µg/mL (≈ 42.9 µM) in series [1] and 10.1 µg/mL (≈ 32.3 µM) in series [2].

With `Clc1ccc([C@@H](CCn2cncn2)Cc2ccccc2)c(Cl)c1`, the figures for the CC50 at 72 h in series [1] and in series [2] were 11.1 µg/mL (≈ 32.1 µM) and 6.5 µg/mL (≈ 18.8 µM), respectively.

With `Clc1ccc([C@H](CCn2cncn2)Cc2ccccc2)c(Cl)c1`, the cytotoxic concentration (CC50) at 72 h was 4.9 µg/mL (≈ 14.2 µM) in series [1] and 1.9 µg/mL (≈ 5.49 µM) in series [2].

Turning to `CCC[C@@H](CCn1cncn1)c1ccc(Cl)cc1`, the CC50 at 72 h in series [1] worked out at 36.6 µg/mL (≈ 139 µM); in series [2] it was 40.8 µg/mL (≈ 155 µM).

In the case of `CC[C@@H](CCn1cncn1)c1ccccc1`, the CC50 at 72 h came to 89.9 µg/mL (≈ 418 µM) in series [1] and 91.2 µg/mL (≈ 424 µM) in series [2].

In the case of `CCCC[C@@H](CCn1cncn1)c1ccc(Cl)cc1`, the results for the CC50 at 72 h in series [1] and in series [2] were 17 µg/mL (≈ 61.2 µM) and 18.7 µg/mL (≈ 67.3 µM), respectively.

Regarding `CCCC[C@H](CCn1cncn1)c1ccc(OC)cc1`, the CC50 at 72 h in series [1] stood at 34.5 µg/mL (≈ 126 µM); in series [2], 28.3 µg/mL (≈ 104 µM).

For `Clc1ccc([C@@H](CCn2cncn2)Cc2ccccc2)cc1`, the results for the CC50 at 72 h in series [1] and in series [2] were 25.9 µg/mL (≈ 83.1 µM) and 24.4 µg/mL (≈ 78.3 µM), respectively.

Take `Clc1ccc([C@H](CCn2cncn2)Cc2ccccc2)cc1`: the CC50 at 72 h in series [1] was 25.7 µg/mL (≈ 82.4 µM); in series [2] it was 21.7 µg/mL (≈ 69.6 µM).

Take `CC[C@H](CCn1cncn1)c1ccc(F)cc1`: the values for the CC50 at 72 h in series [1] and in series [2] were 103 µg/mL (≈ 442 µM) and 110 µg/mL (≈ 473 µM), respectively. The EC50 entry in the series on Enterovirus A71 and in the series with Coxsackievirus B3 was “Not Active” in each case.

Turning to `CCCC[C@@H](CCn1cncn1)c1ccc(Cl)cc1Cl`, the CC50 at 72 h in series [1] is 6.5 µg/mL (≈ 20.8 µM); in series [2], 1.9 µg/mL (≈ 6.08 µM).

In the case of `CCCC[C@@H](CCn1cncn1)c1ccc(OC)cc1`, the CC50 at 72 h in series [1] amounted to 31.6 µg/mL (≈ 116 µM); in series [2], 39.4 µg/mL (≈ 144 µM).

With `CCCC[C@@H](CCn1cncn1)c1ccccc1`, the CC50 at 72 h in series [1] amounted to 40.8 µg/mL (≈ 168 µM); in series [2] it was 47.5 µg/mL (≈ 195 µM). The EC50 entry in the series on Enterovirus A71 and in the series on Coxsackievirus B3 was “Not Active” in each case.

`CCCC[C@H](CCn1cncn1)c1ccc(F)cc1`: the CC50 at 72 h was found to be 38.5 µg/mL (≈ 147 µM) in series [1] and 35.2 µg/mL (≈ 135 µM) in series [2].

As for `CCC[C@H](CCn1cncn1)c1ccc(C)cc1`, the CC50 at 72 h in series [1] came to 45.7 µg/mL (≈ 188 µM); in series [2] it was 47.2 µg/mL (≈ 194 µM).

As for `CCCC[C@H](CCn1cncn1)c1ccc(Cl)cc1`, the values for the CC50 at 72 h in series [1] and in series [2] were 20.2 µg/mL (≈ 72.7 µM) and 20.3 µg/mL (≈ 73.1 µM), respectively.

For the molecule `CCC[C@H](CCn1cncn1)c1ccccc1`, the CC50 at 72 h in series [1] was 58.4 µg/mL (≈ 255 µM); in series [2], 63.1 µg/mL (≈ 275 µM).

On to `CCC[C@@H](CCn1cncn1)c1ccc(F)cc1`, for which the CC50 at 72 h in series [1] was 55.3 µg/mL (≈ 224 µM); in series [2], 56.9 µg/mL (≈ 230 µM).

Consider `CCC[C@H](CCn1cncn1)c1ccc(F)cc1`, for which the cytotoxic concentration (CC50) at 72 h in series [1] was found to be 39.3 µg/mL (≈ 159 µM); in series [2], 38.4 µg/mL (≈ 155 µM).

With `c1ccc(C[C@@H](CCn2cncn2)c2ccccc2)cc1`, the CC50 at 72 h came out at 55.9 µg/mL (≈ 202 µM) in series [1] and 56 µg/mL (≈ 202 µM) in series [2].

Consider `CC[C@H](CCn1cncn1)c1ccccc1`, for which the CC50 at 72 h in series [1] is 97.7 µg/mL (≈ 454 µM); in series [2] it was 99.8 µg/mL (≈ 464 µM).

Regarding `CCCC[C@@H](CCn1cncn1)c1ccc(F)cc1`, the CC50 at 72 h in series [1] turned out to be 36 µg/mL (≈ 138 µM); in series [2] it was 34.1 µg/mL (≈ 130 µM).

For the molecule `CCCC[C@@H](CCn1cncn1)c1ccc(C)cc1`, the 50% cytotoxic concentration (CC50) at 72 h was found to be 60.7 µg/mL (≈ 236 µM) in series [1] and 56.5 µg/mL (≈ 220 µM) in series [2]. Moreover, the EC50 result in the series with Enterovirus A71 and in the series with Coxsackievirus B3 was “Not Active” throughout.
